From patent publication US20140336218A1, “ARFORMOTEROL AND TIOTROPIUM COMPOSITIONS AND METHODS FOR USE” (priority 2008, published 2014)

Experiments:
[1] = tested on: COPD patients; experiment: Rescue medication (levalbuterol MDI) use in 2-week clinical trial; assay type: in vivo, human
Protocol: (§1) This was a 2-week, prospective, multi-center (34 sites), randomized, modified blind, double dummy, parallel group study designed to evaluate the efficacy and safety of the combination of arformoterol 15 μg BID and tiotropium 18 μg QD (dosed sequentially) versus the individual mono-therapies in the treatment of COPD patients. The study was conducted according to the principles established by the Declaration of Helsinki (see, e.g., World Medical Association Declaration of Helsinki. Recommendations guiding physicians in biomedical research involving human subjects. JAMA 1997; 277:925-926.). Appropriate Institutional Review boards approved the protocol and written informed consent was obtained from the patients.
During the study period, the use of LABAs or long-or short-acting anticholinergic bronchodilators (except for the study medication) was prohibited. Use of oral and inhaled corticosteroids was allowed as long as patients were on a stable dosing regimen for at least 14 days prior to study entry that was maintained throughout the study. Patients were required to withhold oral corticosteroids for at least 24 hours prior to pulmonary function testing. Leukotriene modifiers and methylxanthines were not allowed for at least 7-days prior to study entry. Levalbuterol MDI (Xopenex® Sepracor Inc., Marlborough, Mass.) was supplied and used as-needed for rescue medications for acute bronchospasm and acute treatment of COPD symptoms throughout the trial. Patients were instructed to withhold the use of rescue medication for ≧6 hours prior to each clinic visit.
At the screening visit, baseline values were obtained for COPD symptoms, Modified Medical Research Council (MMRC) Dyspnea Scale, heart rate, vital signs, and pulmonary function tests. Medical event calendars and medication logs that were to be completed daily, and rescue medication were also dispensed. The medication logs were used to assess compliance by monitoring the number of UDV/DPI doses taken.
(§2) Eligible patients were randomized to receive one of three treatments for 14 days: nebulized arformoterol 15 μg (Brovana®, Sepracor Inc., Marlborough, Mass.) BID and placebo DPI QD, nebulized placebo BID and tiotropium 18 μg (Spriva® HandiHaler® Boehringer Ingelheim, Ridgefield, Conn.) DPI QD, or nebulized arformoterol 15 μg BID and tiotropium 18 μg DPI QD. The nebulized drug was administered first using the PARI LC Plus® nebulizer driven by the Duraneb 3000® compressor (Pari: Pari Respiratory Equipment Inc., Midlothian, Va.) at a flow rate of 3.3 L/minute followed (within 5 minutes) by the DPI administration (HandiHaler®). The tiotropium and placebo DPI capsules were identical in size and shape but differed in color.

[2] = tested on: COPD patients; experiment: Spirometry (FEV1, FVC) in 2-week randomized, double dummy, parallel group clinical trial; assay type: in vivo, human
Protocol: as §1
All patients had non-asthmatic COPD (including emphysema and/or chronic bronchitis). […] They also were required to have a pre-bronchodilator baseline pulmonary function of FEV1>0.7 L, FEV1/FVC ratio of ≦70%, and FEV1≦65% predicted. Patients were excluded if they had life-threatening or unstable respiratory status within 30 days of the screening visit. Patients who changed their prescribed dose or type of COPD medication within 14 days prior to screening or who had ever used tiotropium bromide inhalation powder were excluded.
as §2
At week 0 and week 2, medical event calendars and blood samples were collected and vital signs and heart measurements analyzed. At week 0, spirometry was performed pre-morning dose, immediately (within 5 minutes) and at 30 minutes, 1, 2, 4, 6, 8, 10, and 12 hours post-first dose. After the 12-hour pulmonary function test patients self-administered the evening dose of study medication. At week 2, serial spirometry was also performed as at week 0, as well as immediately (within 5 minutes) following the evening dose (administered 12 hours after the morning dose) and 12.5, 13, 14, 16, 23, and 24 hours post-morning dose. Inspiratory capacity was evaluated pre-dose and at 2 hours post-morning dose at week 0, and pre-dose and 2, 11, 14, and 24 hours post-morning dose at week 2. All inspiratory capacity measurements were the mean of acceptable inspiratory capacity maneuvers, two of which were reproducible. Prior to an inspiratory capacity maneuver a patient had to have a stable expiratory level for about 10 breaths. Once the stable level was achieved, at the end of exhalation of a normal breath the patient was asked to make a steady and full inhalation at normal inspiratory flow rates until the lungs were completely full, and then to exhale at a normal rate.
All pulmonary function values used were the highest among the three acceptable maneuvers. The Investigator ensured that all spirometry was performed in accordance with the American Thoracic Society/European Respiratory Society Standardisation of Spirometry guidelines (see, e.g., Miller M R, Hankinson J, Brusasco V, Burgos F, Casaburi R, Coates A, et al. Standardisation of spirometry. Eur Respir J 2005; 26:319-338; herein incorporated in its entirety by reference). Centralized over-reading of spirometry and inspiratory capacity pulmonary function measures were used for quality control.

[3] = tested on: COPD patients; experiment: Adverse events in 2-week clinical trial; details: ITT, 2 weeks of treatment
Protocol: as §1, §2
Descriptive statistics were calculated by treatment for baseline characteristics and each efficacy parameter. Adverse events were summarized using counts and percentages. All adverse events were coded using MedDRA (Medical Dictionary for Regulatory Activities (see, e.g., MedDRA and MSSO. The medical dictionary for regulatory activities 2008). A COPD exacerbation was pre-defined as an increase in symptoms that necessitated any change in baseline medication other than bronchodilators (e.g. anti-inflammatory agents, antibiotics, supplemental oxygen therapy, etc.) or caused the patient to require additional medical attention (hospitalization, emergency room visit, etc.).

[4] = <50% percent predicted FEV1, changes in levalbuterol MDI use at week 2
[5] = ITT, week 2, change from baseline, levalbuterol rescue
[6] = ≧50% percent predicted FEV1, changes in levalbuterol MDI use at week 2
[7] = ITT, change from baseline at week 2
[8] = ITT, week 2, combined therapy versus the mono-therapy
[9] = baseline percent predicted FEV1 <50%, week 2, combined versus the mono-therapy
[10] = baseline percent predicted FEV1 <50%, week 2 from study baseline
[11] = baseline percent predicted FEV1 ≧50%, week 2, combined versus the mono-therapy
[12] = baseline percent predicted FEV1 ≧50%, week 2 from study baseline

## C[N+]1(C)[C@@H]2C[C@@H](OC(=O)C(O)(c3cccs3)c3cccs3)C[C@H]1[C@@H]1O[C@@H]12 [Tiotropium]
[1]; [4]
  Number of actuations per day, mean (SD): −1.8 (3.3) actuations per day
  Used levalbuterol, n (%): 48 (94.1) n (%)
[1]; ITT, week 2
  Used levalbuterol, n (%): 38 (47.5) n (%)
[1]; [5]
  Number of actuations per day, mean (SD): −1.8 (2.8) actuations per day
  Number of days per week, mean (SD): −2.2 (2.7) days per week
[1]; [6]
  Number of actuations per day, mean (SD): −1.9 (1.8) actuations per day
  Used levalbuterol, n (%): 27 (96.4) n (%)
[2]; [7]
  Peak Change in FEV1 over 12 hours, mean (SD): 0.27 (0.23) L
  Peak change in FVC over 12 hours, mean (SD): 0.40 (0.34) L
[2]; ITT, change from baseline at week 2, time normalized
  Change in FEV1AUC0-24, mean (SD): 0.08 (0.20) L
[2]; [8]
  Difference between combined therapy and mono-therapies in change in FEV1AUC0-24, LS mean: 0.14 L
  Difference between combined therapy and mono-therapies in change in trough FEV1, LS mean: 0.07 L
  Difference between combined therapy and mono-therapies in peak change in FEV1 over 12 hours, LS mean: 0.11 L
  Difference between combined therapy and mono-therapies in peak change in FVC over 12 hours, LS mean: 0.20 L
[2]; ITT, week 2, trough = 24 hour time point after morning dose
  Change in trough FEV1, mean (SD): 0.08 (0.21) L
[2]; [9]
  Difference between combined therapy and mono-therapies in change in FEV1AUC0-24, LS mean: 0.16 L
  Difference between combined therapy and mono-therapies in peak change in FEV1 over 12 hours, LS mean: 0.14 L
  Difference between combined therapy and mono-therapies in peak change in FVC over 12 hours, LS mean: 0.28 L
  Difference between combined therapy and mono-therapies in trough FEV1, LS mean: 0.10 L
[2]; [10]
  Peak Change in FEV1 over 12 hours, mean (SD): 0.29 (0.26) L
  Peak change in FVC over 12 hours, mean (SD): 0.43 (0.37) L
  Trough FEV1 (change in FEV1 at 24 hours post-dose), mean (SD): 0.11 (0.22) L
[2]; baseline percent predicted FEV1 <50%, week 2 from study baseline (pre-dose week 0)
  Change in FEV1AUC0-24, mean (SD): 0.10 (0.22) L
[2]; [11]
  Difference between combined therapy and mono-therapies in change in FEV1AUC0-24, LS mean: 0.12 L
  Difference between combined therapy and mono-therapies in peak change in FEV1 over 12 hours, LS mean: 0.09 L
  Difference between combined therapy and mono-therapies in peak change in FVC over 12 hours, LS mean: 0.08 L
  Difference between combined therapy and mono-therapies in trough FEV1, LS mean: 0.04 L
[2]; [12]
  Peak Change in FEV1 over 12 hours, mean (SD): 0.23 (0.16) L
  Peak change in FVC over 12 hours, mean (SD): 0.34 (0.28) L
  Trough FEV1 (change in FEV1 at 24 hours post-dose), mean (SD): 0.03 (0.17) L
[2]; baseline percent predicted FEV1 ≧50%, week 2 from study baseline (pre-dose week 0)
  Change in FEV1AUC0-24, mean (SD): 0.05 (0.14) L
[2]; from baseline after 2 weeks of treatment
  mean improvement in peak FVC: 40 mL
[2]; from visit pre-dose
  LS mean (±SE) peak improvement in FEV1 from visit pre-dose: 0.19 L
[3]
  Any adverse event, n (%): 22 (27.5) n (%)
  COPD exacerbations: 0 n (%)
  Discontinued due to adverse events, n (%): 1 (1.3) n (%)
  Overall cardiovascular adverse events, n (%): 1 (1.3) n (%)
  Serious adverse events, n (%): 0 n (%)
